Assays:
PAMPA-BBB analysis = format: in vitro ADME
Method: […] PAMPA-BBB analysis was performed by using a PAMPA Explorer kit (pION, Inc. Billerica, Mass., USA) according to the manufacture's protocol with slight modifications. […] The prepared solution was put in each well of a donor plate (200 μl, repeated 12 times). A polyvinylidene fluoride (PVDF, […]) filter membrane on an acceptor plate was coated with BBB-1 lipid formulation (5 μl, pION). The acceptor plate was placed on top of the donor plate to generate a “sandwich”. Brain sink buffer (BSB, 200 μl, pION) was added to each well of the acceptor plate. The sandwich-shaped plate was incubated for 4 hours at room temperature without stirring. UV-vis spectra of the solutions in the reference, acceptor, and donor plates were measured using a microplate reader. A PAMPA Explorer software [v. 3.8 (pION)] was used to calculate the −log Pe values for compounds. CNS±designations were assigned by comparison with compounds that were identified in previous reports.

[1] = Antioxidant effect: free organic radical-scavenging activity (ABTS) using cell lysate; format: biochemical; conditions: Table 1 summary of Example 3; symbols not defined
Method: It was examined whether the benzene diamine derivatives of the present disclosure have an antioxidant effect. It is known that reactive oxygen species induces oxidative stress in neuronal cells to cause neuronal cell death and causes protein misfolding to induce formation of Aβ aggregates. Therefore, compounds having antioxidant effects may be candidates for preventing or treating dementia.
Free organic radical-scavenging activity of the compound was determined according to a protocol of Cayman Chemical Company (Ann Arbor, Mich., USA) with slight modifications. For antioxidant analysis using a cell lysate, cells were seeded in a 6-well plate, and cultured until they reached 80-90% confluence. A cell lysate was prepared according to a known method, washed with a cold phosphate buffer solution (PBS; pH 7.4, GIBCO), and then harvested. Cell pellet was produced by centrifugation (2,000 g, 4° C., 10 min). This pellet was sonicated (5 sec pulse, 20 sec interval, three times) in 2 ml of cold assay buffer S13 (5 mM potassium phosphate, pH 7.4; 0.9% NaCl; 0.1% glucose) on ice. A cell lysate was centrifuged at 4° C. for 10 minutes at 5,000 g. A supernatant was removed, and left on ice until use. To the cell lysate supernatant (10 μl), the compound, metmyoglobin, ABTS (2,2′-azino-bis-3-ethylbenzothiazoline-6-sulfonic acid), and hydrogen peroxide were sequentially added. The mixture was incubated on a shaker at room temperature for 5 minutes, and absorbance at 750 nm was measured. The compound at a final concentration of 45, 90, 135, 180, 225, or 330 μM and Trolox (6-hydroxy-2,5,7,8-tetramethyl-chroman-2-carboxylic acid, dissolved in EtOH) were used. Antioxidant activity was calculated according to the measured absorbance [% inhibition=100×(A0−A)/A0, A0 represents absorbance of the supernant of the cell lysate]. Each measurement was repeated in triplicate.

monomeric Aβ42 = target: T1, monomeric Aβ42 (Homo sapiens, UniProt P05067); experiment: Brain tissue immunohistofluorescence, monomeric Aβ (BAM-10) and plaques (MX04); format: in vivo, mouse; conditions: oral 100 μg/kg twice a week for 2 months, confocal, FIG. 7
T1 construct: from tissue; host or cells: brain of dementia mouse models
T1 sequence (P05067 672-713 limits assumed): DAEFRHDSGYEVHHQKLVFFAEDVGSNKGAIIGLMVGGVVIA
Method: Overexpression of monomeric Aβ may increase formation of oligomeric Aβ, Aβ aggregates, and amyloid plaques to cause neuronal cytotoxicity. Therefore, anatomical analysis of the brain tissue was performed to examine whether the benzene diamine derivatives of the present disclosure inhibit monomeric Aβ formation in dementia mouse models.
As in Experimental Example 1, a control group was orally administered with a vehicle for 2 months, and an experimental group was orally administered with 100 μg/kg/0.1 ml of N^1-(pyridin-2-ylmethyl)benzene-1,4-diamine (Compound 2) twice a week for 2 months. The brain was taken from a non-treated dementia mouse model (4 months), and the brains of the control group and the experimental group were also taken after the administration. Each mouse was anesthetized with ketamine, and then the skull was incised. The brain was then embedded in paraffin and subjected to immunohistofluorescence staining. The brain tissues were fixed in formalin and sectioned at a thickness of 50 μm by using a vibrotome, and each tissue was placed on a glass slice. For comparison of monomeric Aβ, BAM-10 monoclonal anti-Aβ primary antibody labeled with QD525 probe (green fluorescence) was used to examine changes in the quantity of monomeric Aβ42. […]

[2] = test system: APP/PS/Tau dementia mouse model; experiment: Morris water maze test, memory capacity of dementia mouse model; format: in vivo; conditions: oral 100 μg/kg twice a week for 2 months
Method: In order to investigate enhancement of spatial cognition and memory in dementia mouse models by the benzene diamine derivatives of the present disclosure, a Morris water maze (Harvard Apparatus, USA) test was performed.
In detail, a water maze composed of a stainless steel pool with a diameter of 150 cm×a height of 60 cm and an escape platform (10 cm in diameter, 30 cm in height) was filled with water at 22±2° C., and the height was 2 cm above the platform such that when a mouse sat on the escape platform, the body was allowed to come out of the water. […] Escape latency was measured as the time taken for the experimental animal to go to the escape platform when the experimental animal went to the escape platform and stayed thereon for more than 20 seconds. This test was performed three times a day, and a mean value was determined as mean escape latency. The escape latency was recorded on the computer program (Smart Video Tracking System V3.0, PanLab SL, Barcelona, Spain) by installing a camera on the ceiling above the water tank. The experiment was performed three times a day for 6 days, and at this time, the possibility of accidentally visiting the escape platform was minimized by sequentially changing the positions of the experimental animals in the water tank. In the experiment, a normal mouse, a control dementia mouse administered with a vehicle (PBS) and an experimental dementia mouse administered with 100 μg/kg of N^1-(pyridin-2-ylmethypenzene-1,4-diamine (Compound 2) twice a week for 2 months were used after completing administration, as in Experimental Example 1.

PAMPA-BBB permeability class (PAMPA-BBB analysis; 50 μM, incubation 4 hrs, U.V): High
Papp at 4 h, 50 μM (PAMPA-BBB analysis; PAMPA, pH 7.4, 50 μM, incubation 4 hrs, U.V, read-out: Pe): 12.5 ×10⁻⁶ cm/s
CNS± designation (PAMPA-BBB analysis; assigned by comparison with compounds identified in previous reports): (CNS+)
plaques (MX04) in brain (monomeric Aβ42): plaques were hardly observed
SMILES: Nc1ccc(NCc2ccccn2)cc1 [Compound 2, N^1-(pyridin-2-ylmethyl)benzene-1,4-diamine]
Reactive oxygen species (antioxidant effect) [1]: ◯ (better effect than TEAC)
monomeric Aβ formation in cortex and hippocampus (monomeric Aβ42): monomeric Aβ formation was hardly observed
difference in mean escape latency vs control group at 4 days ([2]; AD mice): 16 s
difference in mean escape latency vs dementia group at 5 days ([2]; AD mice): 19 s
mean escape latency at 4 days ([2]; AD mice): 26 ± 1 s
mean escape latency at 5 days ([2]; AD mice): 24 ± 1 s
mean escape latency at 3 days (worded) ([2]; vs dementia control group, FIG. 5): significantly short mean escape latency

Source: patent US10464901B2, “Composition including benzene diamine derivative for preventing or treating degenerative brain diseases” (UNIST(ULSAN NATIONAL INSTITUTE OF SCIENCE AND TECHNOLOGY), priority 2017, dated 2019)
